OC[C@@H](O)CN1CCN(c2ccccc2)CC1
solubility (mole fraction)
Details	283.1 K	288.1 K	293.1 K	298.1 K	303.1 K	308.1 K	313.1 K	318.1 K	323.1 K
in ethyl acetate	0.000375	0.000529	0.000655	0.000809	0.00104	0.00132	0.00172	0.00229	0.00299
in isobutanol	0.000871	0.00116	0.00147	0.00194	0.00245	0.00311	0.00397	0.0052	0.00686
in isopentanol	0.000649	0.000914	0.00126	0.00165	0.00209	0.00274	0.00358	0.00472	0.00611
in isopropanol	0.000146	0.000195	0.000245	0.000302	0.000371	0.000462	0.00057	0.000705	0.000852
in isopropyl acetate	0.000293	0.000371	0.000484	0.000609	0.000798	0.00102	0.00132	0.00172	0.00223
in n-butanol	0.000527	0.00072	0.000956	0.00131	0.00175	0.00239	0.00318	0.00424	0.00579
in n-butyl acetate	0.00032	0.000417	0.000551	0.000714	0.000937	0.00122	0.00156	0.00207	0.00266
in n-heptanol	0.000771	0.00104	0.00135	0.0018	0.0023	0.00297	0.00381	0.00492	0.00628
in n-hexanol	0.000816	0.00108	0.00139	0.00181	0.00235	0.00304	0.00393	0.00503	0.00651
in n-pentanol	0.000634	0.000945	0.00128	0.00163	0.00217	0.00285	0.00372	0.00493	0.00646
in n-pentyl acetate	0.000316	0.000391	0.000525	0.000678	0.000888	0.00114	0.0015	0.00194	0.0025
in n-propanol	0.000721	0.000943	0.0012	0.00157	0.00207	0.00277	0.00369	0.00501	0.00656
in n-propyl acetate	0.000351	0.000469	0.000613	0.000803	0.00103	0.00132	0.00173	0.00222	0.00293
